Results on ten compounds are retold here after patent publication US7709475B2, “Selective inhibitors against Cdk4 and Cdk6 having aminothiazole skeleton” (Banyu Pharmaceutical Co., Ltd., priority 2004, dated 2010).

Each structure is given as a SMILES string.

One test has as its target T1, cyclin D2-Cdk6 (Homo sapiens, UniProt Q00534).
T1 construct: made in house; host or cells: insect cell Sf9 (baculovirus)
In words: Cdk6 inhibitory action: cyclin D2-Cdk6 kinase activity. It is filed as biochemical. Particulars: for IC50: cyclin D2-Cdk6, 50 μM ATP; for K1/K6, selectivity for Cdk6 against Cdk1: IC50 of Cdk1 divided by IC50 of Cdk6; for K2/K6, selectivity for Cdk6 against Cdk2: IC50 of Cdk2 divided by IC50 of Cdk6; for K5/K6, selectivity for Cdk6 against Cdk5: IC50 of Cdk5 divided by IC50 of Cdk6; for K7/K6, selectivity for Cdk6 against Cdk7: IC50 of Cdk7 divided by IC50 of Cdk6; for K9/K6, selectivity for Cdk6 against Cdk9: IC50 of Cdk9 divided by IC50 of Cdk6. The text has this:
In the same manner as in the case of cyclin D2-Cdk4, the cDNA of Cdk6, and the cDNA of a fusion protein of cyclin D2, an activating factor of Cdk6, and glutathione S-transferase, were integrated into a baculovirus expression vector to prepare a recombinant baculovirus. This was co-transfected into insect cell Sf9 to express an active complex of the cyclin D2/glutathione S-transferase fusion protein-Cdk6 at a high level. The cells were recovered and solubilized, then the active complex was adsorbed onto Glutathione Sepharose, and a cyclin D2-Cdk6 complex was recovered using Precision Protease and was purified by HPLC column chromatography.
For the measurement of the activity of cyclin D2-Cdk6, a synthetic peptide (Arg-Pro-Pro-Thr-Leu-Ser-Pro-Ile-Pro-His-Ile-Pro-Arg) was used as the substrate.
(§1) The reaction was performed by partially modifying the method of Kitagawa et al. [Oncogene, Vol. 7, 1067-1074 (1992)]. The volume of the reaction solution was 21.1 μL, and to the R buffer, purified cyclin D2-Cdk6, 100 μM of the substrate peptide, 50 μM of non-labeled adenosine triphosphate (ATP), and 1 μCi of [γ-33P]-labeled ATP (2000 to 4000 Ci/mmole) were added to react at 30° C. for 40 minutes. Then, 10 μL of 350 mM phosphate buffer was added to the reaction system to terminate the reaction. The substrate peptide was adsorbed onto P81 paper filter on a 96-well plate, and then washed several times with 75 mM phosphate buffer. The radioactivity of the substrate peptide was measured with a liquid scintillation counter.
(§2) Addition of the compound according to the invention to the reaction system was carried out by first preparing a dilution series of solutions of the compound in dimethylsulfoxide (DMSO), and adding 1.1 μL of the dilutions. A control was provided by adding 1.1 μL of DMSO to the reaction system.
A representative compound of the compounds according to the invention was selected, and the IC50 value of this compound for the cyclin D2-Cdk6 activity was determined.

In the next test the target is T2, p35-Cdk5 (Homo sapiens, UniProt Q00535).
T2 construct: purchased PanVera Corp; host or cells: insect cell
In words: Cdk5 inhibitory action: p35-Cdk5 kinase activity. It is filed as biochemical. The note with it: p35-Cdk5, 50 μM ATP. The procedure:
For the measurement of the activity of p35-Cdk5, a human-derived recombinant […] active complex, which was expressed in insect cell and purified, was purchased from PanVera Corp. A synthetic peptide (Ala-Lys-Ala-Lys-Lys-Thr-Pro-Lys-Lys-Ala-Lys-Lys) was used as the substrate.
as §1, with “cyclin p35-Cdk5, 0.01 mg/mL” for “cyclin D2-Cdk6, 100 μM”, “[…])” for “4000 Ci/mmole)”, “for 10” for “for 40”
as §2
A representative compound of the compounds according to the invention was selected, and the IC50 value of this compound for the p35-Cdk5 activity was determined.

In another test the test system is KU812. Nature of the test: Inhibitory action against cell proliferation (WST-8), KU812. The note with it: Homo sapiens, 72 h, KU812 cells, 3 days culture, read-out: concentration for 50% inhibition of cell proliferation (IC50), KU812. Type of test: cell-based. The procedure: (§3) Clinically isolated cancer cell lines EOL-1, KU812 and JURKAT were cultured in RPMI1640 medium containing 10% fetal calf serum at 37° C. in the presence of 5% CO2 under an atmosphere of saturated steam.
(§4) The inhibitory action against cell proliferation was measured by modifying the method of Skehan et al. [J. Natl. Cancer Inst., Vo. 82, 1107-1112 (1990)] according to the method of Ishiyama et al. [Talanta, Vol. 44, 1299 (1997)]. 100 μL each of cell culture medium containing 1×10^3 live cells of EOL-1, KU812 and JURKAT, respectively, was dispensed into each well of a 96-well cell culture dish, and the cells were cultured overnight. On the next day, a dilution series of solutions in DMSO was prepared from a DMSO solution of the compound of each Example. Then, the dilution series of solutions or DMSO only as a control for no drug addition were separately added to the medium for cell culture. Finally, 100 μL each of the culture medium containing either the dilution series of solutions of the compounds or DMSO only, was added to the cells which had been cultured in a 96-well dish, and then the cells were further cultured for 3 days.
(§5) After adding 20 μL each of WST-8 (Kishida Chemical Co., Ltd.) to each well and culturing the cells for another 2 hours, the optical densities at 450 nm were measured against a reference wavelength of 650 nm, and were compared with the control group. […]

The next test concerns EOL-1. In words: Inhibitory action against cell proliferation (WST-8), EOL-1. Type of test: cell-based. Particulars: Homo sapiens, EOL1, 72 h, EOL-1 cells, 3 days culture, read-out: concentration for 50% inhibition of cell proliferation (IC50), EOL-1. The procedure: as §3, §4, §5
A general note: Tetrazolium assays rely on reduction of a dye to a coloured formazan, in cell work by metabolically active cells.

In the next test the target is T3, cyclin D2-Cdk4 (Homo sapiens, UniProt P11802).
T3 construct: made in house; host or cells: insect cell Sf9 (baculovirus)
In words: Cdk4 inhibitory action: cyclin D2-Cdk4 kinase activity, 33P-ATP, RB peptide substrate. Particulars: for K1/K4, selectivity for Cdk4 against Cdk1: IC50 of Cdk1 divided by IC50 of Cdk4; for K2/K4, selectivity for Cdk4 against Cdk2: IC50 of Cdk2 divided by IC50 of Cdk4; for K5/K4, selectivity for Cdk4 against Cdk5: IC50 of Cdk5 divided by IC50 of Cdk4; for K7/K4, selectivity for Cdk4 against Cdk7: IC50 of Cdk7 divided by IC50 of Cdk4; for K9/K4, selectivity for Cdk4 against Cdk9: IC50 of Cdk9 divided by IC50 of Cdk4. It is filed as biochemical.

T1 sequence (Q00534 whole entry): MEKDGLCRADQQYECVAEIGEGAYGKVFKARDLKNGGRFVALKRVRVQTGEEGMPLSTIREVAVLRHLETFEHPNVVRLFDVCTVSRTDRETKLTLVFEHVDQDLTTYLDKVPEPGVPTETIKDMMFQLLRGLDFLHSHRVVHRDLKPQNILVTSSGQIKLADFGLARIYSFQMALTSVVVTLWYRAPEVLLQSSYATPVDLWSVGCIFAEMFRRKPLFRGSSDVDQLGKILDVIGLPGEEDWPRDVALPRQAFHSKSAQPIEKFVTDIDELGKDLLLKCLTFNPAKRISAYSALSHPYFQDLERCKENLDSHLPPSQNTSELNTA
T1 sequence (P30279 whole entry partner): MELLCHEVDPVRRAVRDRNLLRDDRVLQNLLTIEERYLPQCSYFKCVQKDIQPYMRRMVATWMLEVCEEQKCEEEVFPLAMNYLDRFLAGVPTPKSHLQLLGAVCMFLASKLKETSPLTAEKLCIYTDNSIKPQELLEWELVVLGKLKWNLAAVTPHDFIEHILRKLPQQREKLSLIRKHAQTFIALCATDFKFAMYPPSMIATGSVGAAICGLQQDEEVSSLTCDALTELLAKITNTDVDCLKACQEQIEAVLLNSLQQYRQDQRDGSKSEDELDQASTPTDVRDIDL
T2 sequence (Q00535 whole entry): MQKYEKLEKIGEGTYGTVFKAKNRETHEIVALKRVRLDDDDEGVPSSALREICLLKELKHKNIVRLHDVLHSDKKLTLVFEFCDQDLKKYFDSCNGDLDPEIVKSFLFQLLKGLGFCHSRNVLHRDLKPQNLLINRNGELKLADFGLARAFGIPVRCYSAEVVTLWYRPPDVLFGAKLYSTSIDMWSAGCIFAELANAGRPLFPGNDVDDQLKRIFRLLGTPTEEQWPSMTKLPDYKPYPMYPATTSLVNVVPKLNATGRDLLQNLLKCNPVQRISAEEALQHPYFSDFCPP
T2 sequence (Q15078 whole entry partner): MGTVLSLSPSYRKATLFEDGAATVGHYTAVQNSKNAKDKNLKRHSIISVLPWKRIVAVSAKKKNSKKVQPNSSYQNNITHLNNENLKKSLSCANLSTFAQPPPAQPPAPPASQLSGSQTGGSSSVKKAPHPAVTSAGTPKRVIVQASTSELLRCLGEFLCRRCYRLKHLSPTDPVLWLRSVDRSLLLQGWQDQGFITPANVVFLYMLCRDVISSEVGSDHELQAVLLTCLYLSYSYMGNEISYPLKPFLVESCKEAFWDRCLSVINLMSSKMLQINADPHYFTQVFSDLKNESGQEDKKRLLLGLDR
T3 sequence (P11802 whole entry): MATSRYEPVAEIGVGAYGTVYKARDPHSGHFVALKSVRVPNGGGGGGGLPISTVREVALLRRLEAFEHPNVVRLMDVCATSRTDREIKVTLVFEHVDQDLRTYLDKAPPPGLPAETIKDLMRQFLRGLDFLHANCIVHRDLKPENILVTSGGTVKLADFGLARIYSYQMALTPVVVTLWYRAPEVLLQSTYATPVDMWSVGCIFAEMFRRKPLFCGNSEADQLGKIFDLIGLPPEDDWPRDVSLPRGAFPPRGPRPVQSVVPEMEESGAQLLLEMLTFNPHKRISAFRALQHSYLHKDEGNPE
T3 sequence (P30279 whole entry partner): as the sequence (P30279 whole entry partner) above

In the case of `Cc1cc(-c2cnc(Nc3cnc(CN4CCC(N(C)C)C4)cn3)s2)nc(SC2CCCCC2)n1` (stereo not shown) [Example 94, 5-[2-(cyclohexylthio)-6-methyl-4-pyrimidinyl]-2-[5-(3-dimethylamino-1-pyrrolidinyl)methyl-2-pyrazinyl]amino-1,3-thiazole], the IC50 on cyclin D2-Cdk6 stood at 16 nM.
In the case of `Cc1cc(-c2cnc(Nc3cnc(CN4CCCC4)cn3)s2)nc(SC2CCCCC2)n1` [Example 93, 5-[2-(cyclohexylthio)-6-methyl-4-pyrimidinyl]-2-[5-(1-pyrrolidinyl)methyl-2-pyrazinyl]amino-1,3-thiazole], the results for the IC50 against p35-Cdk5 and against cyclin D2-Cdk6 were 2900 nM and 7.3 nM, respectively.
For `CC(=O)N1CCN(Cc2ccc(Nc3ncc(-c4cc(C)nc(OC5CCCCC5)n4)s3)nc2)CC1` [Example 125, 5-[2-(cyclohexyloxy)-6-methyl-4-pyrimidinyl]-2-[5-(4-acetyl-1-piperazinyl)methyl-2-pyridyl]amino-1,3-thiazole], the IC50 in the test with KU812 came out at 180 nM; with EOL-1, 5.6 nM; at cyclin D2-Cdk6, 17 nM.
On p35-Cdk5, `Cc1cc(-c2cnc(Nc3cnc(CNCCO)cn3)s2)nc(SC2CCCCC2)n1` [Example 99, 5-[2-(cyclohexylthio)-6-methyl-4-pyrimidinyl]-2-[5-(2-hydroxyethylamino)methyl-2-pyrazinyl]amino-1,3-thiazole] had an IC50 of 2400 nM.
Consider `Cc1cc(-c2cnc(Nc3cnc(CN4CCC(N(C)C)C4)cn3)s2)nc(OC2CCCCC2)n1` (stereo not shown) [Example 13, 5-[2-(cyclohexyloxy)-6-methyl-4-pyrimidinyl]-2-[5-(3-dimethylamino-1-pyrrolidinyl)methyl-2-pyrazinyl]amino-1,3-thiazole], for which, at cyclin D2-Cdk4, the “K1/K4, selectivity for Cdk4 against Cdk1” value is 103; the “K2/K4, selectivity for Cdk4 against Cdk2” value is reported as 142; the “K5/K4, selectivity for Cdk4 against Cdk5” value is reported as 433; the “K7/K4, selectivity for Cdk4 against Cdk7” value is on record as 62. The “K9/K4, selectivity for Cdk4 against Cdk9” value on cyclin D2-Cdk4 is 72. The IC50 on p35-Cdk5 worked out at 2600 nM. Moreover, at cyclin D2-Cdk6, the “K1/K6, selectivity for Cdk6 against Cdk1” value is on record as 48; the “K2/K6, selectivity for Cdk6 against Cdk2” value turned out to be 65; the “K5/K6, selectivity for Cdk6 against Cdk5” value came out at 200; the “K7/K6, selectivity for Cdk6 against Cdk7” value is reported as 28. Also, on cyclin D2-Cdk6, the “K9/K6, selectivity for Cdk6 against Cdk9” value is on record as 33 and the IC50 is 13 nM.
Consider `Cc1cc(-c2cnc(Nc3cnc(CN4CCN(C)CC4)cn3)s2)nc(OC2CCCCC2)n1` [Example 1, 5-[2-(cyclohexyloxy)-6-methyl-4-pyrimidinyl]-2-[5-(4-methyl-1-piperazinyl)methyl-2-pyrazinyl]amino-1,3-thiazole], for which, on cyclin D2-Cdk4, the “K1/K4, selectivity for Cdk4 against Cdk1” value came out at 65; the “K2/K4, selectivity for Cdk4 against Cdk2” value is listed as 185; the “K5/K4, selectivity for Cdk4 against Cdk5” value came out at 326; the “K7/K4, selectivity for Cdk4 against Cdk7” value was determined as 58. In addition, on cyclin D2-Cdk4, the “K9/K4, selectivity for Cdk4 against Cdk9” value is given as 272. Further, the IC50 in the test on KU812 amounted to 150 nM. Besides, the IC50 in the test on EOL-1 is 54 nM. On cyclin D2-Cdk6, the “K1/K6, selectivity for Cdk6 against Cdk1” value is 77; the “K2/K6, selectivity for Cdk6 against Cdk2” value came to 218; the “K5/K6, selectivity for Cdk6 against Cdk5” value is 385; the “K7/K6, selectivity for Cdk6 against Cdk7” value is 68. In addition, at cyclin D2-Cdk6, the “K9/K6, selectivity for Cdk6 against Cdk9” value is reported as 321 and the IC50 came to 7.8 nM.
Regarding `Cc1cc(-c2cnc(Nc3cnc(CN4CCN(C)CC4)cn3)s2)nc(NC2CCCCC2)n1` [Example 55, 5-[2-(cyclohexylamino)-6-methyl-4-pyrimidinyl]-2-[5-(4-methyl-1-piperazinyl)methyl-2-pyrazinyl]amino-1,3-thiazole], the IC50 against cyclin D2-Cdk6 was determined as 5.1 nM.
At cyclin D2-Cdk6, `Cc1cc(-c2cnc(Nc3cnc(CNC(C)C)cn3)s2)nc(SC2CCCCC2)n1` [Example 96, 5-[2-(cyclohexylthio)-6-methyl-4-pyrimidinyl]-2-[5-(isopropylamino)methyl-2-pyrazinyl]amino-1,3-thiazole] registered an IC50 of 9.3 nM.
For the compound `Cc1cc(-c2cnc(Nc3cnc(CN4CCN(C)CC4)cn3)s2)nc(Sc2ccccc2Cl)n1` [Example 109, 5-[2-(2-chlorophenylthio)-6-methyl-4-pyrimidinyl]-2-[5-(4-methyl-1-piperazinyl)methyl-2-pyrazinyl]amino-1,3-thiazole], on cyclin D2-Cdk6, the IC50 stood at 18 nM.
In the case of `Cc1cc(-c2cnc(Nc3ccc(CN4CCC[C@H]4CO)cn3)s2)nc(NC2CCCCC2)n1` [Example 137, (2S)-5-[2-(cyclohexylamino)-6-methyl-4-pyrimidinyl]-2-[5-(2-hydroxymethyl-1-pyrrolidinyl)methyl-2-pyridyl]amino-1,3-thiazole], on cyclin D2-Cdk4, the “K1/K4, selectivity for Cdk4 against Cdk1” value was 167; the “K2/K4, selectivity for Cdk4 against Cdk2” value was 625; the “K5/K4, selectivity for Cdk4 against Cdk5” value came to 417; the “K7/K4, selectivity for Cdk4 against Cdk7” value was 167. The “K9/K4, selectivity for Cdk4 against Cdk9” value on cyclin D2-Cdk4 was 153. Besides, at cyclin D2-Cdk6, the “K1/K6, selectivity for Cdk6 against Cdk1” value was found to be 57; the “K2/K6, selectivity for Cdk6 against Cdk2” value stood at 214; the “K5/K6, selectivity for Cdk6 against Cdk5” value worked out at 143; the “K7/K6, selectivity for Cdk6 against Cdk7” value amounted to 57. For the same compound, at cyclin D2-Cdk6, the “K9/K6, selectivity for Cdk6 against Cdk9” value stood at 52 and the IC50 is 21 nM.
